Measurements reported in PMC9317861, “In Vitro Assessment of Pesticides Toxicity and Data Correlation with Pesticides Physicochemical Properties for Prediction of Toxicity in Gastrointestinal and Skin Contact Exposure” (Toxics, 2022).
Read-outs that look alike come from different tables or passages of the source.

Legend:
[1] = test system: A431 cells; test: Alamar Blue cell viability/cytotoxicity assay, A431; assay type: cell-based; conditions: Homo sapiens
Text: (§1) To assess the cytotoxic activity of GLY, IMD and IMZ, six cell lines, namely Caco-2 (human epithelial colorectal adenocarcinoma; Cell Lines Service (CLS), Eppelheim, Germany), HepG2 (human hepatocellular carcinoma; ATCC, Rockville, USA), A431 (human epidermoid carcinoma; CLS, Eppelheim, Germany), HaCaT (human keratinocytes, CLS, Eppelheim, Germany), SK-MEL-5 (human skin melanoma; CLS, Eppelheim, Germany), and RAW 264.7 (mouse macrophages, Abelson murine leukaemia virus-induced tumour; CLS, Eppelheim, Germany) cells, were used. All cell lines were cultured in complete culture media, composed of Dulbecco’s Modified Eagle Media (DMEM), supplemented with 1 mM L-glutamine, 10% (v/v) foetal bovine serum (FBS), and antibiotics (penicillin at 100 U/mL, and streptomycin at 100 μg/mL) and maintained in an incubator (5% CO2/95% air; 37 °C, controlled humidity). Cells were grown, in T25 culture flasks, to near confluence.
(§2) Near confluence, all cell lines, except RAW 264.7 cells, were subjected to enzymatic treatment (trypsin-EDTA) for detachment and subculture, as described by Andreani et al. and by Silva et al., which was stopped using complete culture medium (1:1, trypsin:culture media) as soon as cells were detached. RAW 264.7 cells were scratched off from the culture flasks using a cell scratcher (Orange Scientific; Braine-L’Alleud, Belgium), handling was performed, as described by Silva et al.. Once detached from the flasks, cells were gently separated and re-suspended using a Pasteur pipette, counted using an automated cell counter (TC10™, BIORAD, Lisbon, Portugal). Then, cells were re-suspended in fresh culture media (at 5 × 10^4 cells/mL) and seeded into 96-well microplates (100 µL/well) which were maintained in an incubator, for 48 h (to adhere and stabilize) before being used. For other details, see [24, 25].
(§3) Alamar Blue® (AB) assay was performed to assess the in vitro effect of the pesticides on cell viability. In summary, cells seeded into 96-well microplates were treated with various concentrations of the pesticides (GLY: 0–1 mM; IMD: 0–1 mM; IMZ: 0–0.3 mM). Test solutions were prepared in FBS-free culture media by diluting the appropriate volume of respective stock solution. A stock solution of GLY was prepared in water (at 40 mM), and stock solutions of IMD and IMZ were prepared in DMSO (at 20 mM). After 24 h or 48 h of exposure, the test solutions were removed and immediately replaced with Alamar Blue solution (100 µL/well; 10% (v/v) in FBS-free medium), followed by an additional 5 h incubation. Then, absorbance was read at 570 and 620 nm using a microplate reader (Multiskan EX; MTX Lab Systems, Inc., Bradenton, FL, USA), and the percentage of AB reduction was calculated according to manufacturers’ instructions, as described. Cell viability was calculated and expressed as percentage of control cells (non-exposed cells).

[2] = test system: SK-MEL-5 cells; test: Alamar Blue cell viability/cytotoxicity assay, SK-MEL-5; assay type: cell-based, human; conditions: for IC50: Homo sapiens
Protocol: (§4) Cells were grown, in T25 culture flasks, to near confluence.
as §2, §3

[3] = as above; assay type: cell-based, human; conditions: human; SK-MEL-5, 50 µM, 48 h
Protocol: as §4, §2, §3

[4] = n-octanol/water; Pubchem and INCHEM; cited from earlier work
[5] = test system: Caco-2 cells; conditions: cited from earlier work; for IC50: Caco-2, 24 h
[6] = test system: CYP3A4; set-up: method as in PMID 19070657; conditions: cited from earlier work
[7] = test system: HaCaT cells; test: Alamar Blue cell viability/cytotoxicity assay, HaCaT; assay type: cell-based; conditions: Homo sapiens
Text: as §1, §2, §3

[8] = test system: HepG2 cells; test: Alamar Blue cell viability/cytotoxicity assay, HepG2; assay type: cell-based, human; conditions: for IC50: Homo sapiens
Text: as §1, §2, §3

[9] = test system: Caco-2 cells; test: Alamar Blue cell viability/cytotoxicity assay, Caco-2; assay type: cell-based, human; conditions: for cell viability reduction: Caco-2, 300 µM; for IC50: Homo sapiens
Protocol: as §4, §2, §3

[10] = as above; assay type: cell-based, human; conditions: human, 48 h
Protocol: as §4, §2, §3

[11] = test system: RAW 264.7 cells; test: Alamar Blue cell viability/cytotoxicity assay, RAW 264.7; assay type: cell-based; conditions: Mus musculus
Text: as §1, §2, §3

[12] = Figure 4A; cited from earlier work
[13] = cited from earlier work
[14] = test system: SK-MEL-2; set-up: method as in PMID 23535362; conditions: SK-MEL-2, 72 h exposure; cited from earlier work
[15] = test system: Caco-2, HepG2, A431, HaCaT, SK-MEL-5 and RAW 264.7 cells; test: Alamar Blue cell viability, all tested cell lines; assay type: cell-based; conditions: up to 1 mM (highest tested concentration)
Text: To assess the cytotoxic activity of GLY, IMD and IMZ, six cell lines, namely Caco-2 (human epithelial colorectal adenocarcinoma; Cell Lines Service (CLS), Eppelheim, Germany), HepG2 (human hepatocellular carcinoma; ATCC, Rockville, USA), A431 (human epidermoid carcinoma; CLS, Eppelheim, Germany), HaCaT (human keratinocytes, CLS, Eppelheim, Germany), SK-MEL-5 (human skin melanoma; CLS, Eppelheim, Germany), and RAW 264.7 (mouse macrophages, Abelson murine leukaemia virus-induced tumour; CLS, Eppelheim, Germany) cells, were used. […]
Near confluence, all cell lines, except RAW 264.7 cells, were subjected to enzymatic treatment (trypsin-EDTA) for detachment and subculture, as described by Andreani et al. and by Silva et al., which was stopped using complete culture medium (1:1, trypsin:culture media) as soon as cells were detached. […] Once detached from the flasks, cells were gently separated and re-suspended using a Pasteur pipette, counted using an automated cell counter (TC10™, BIORAD, Lisbon, Portugal). […]
Alamar Blue® (AB) assay was performed to assess the in vitro effect of the pesticides on cell viability. […] Then, absorbance was read at 570 and 620 nm using a microplate reader (Multiskan EX; MTX Lab Systems, Inc., Bradenton, FL, USA), and the percentage of AB reduction was calculated according to manufacturers’ instructions, as described. […]

[16] = test system: HepG2 cells; conditions: cited from earlier work
[17] = cited from earlier work; remark: listed apart in the source
[18] = test system: HaCaT cells; conditions: cited from earlier work

C=CCOC(Cn1ccnc1)c1ccc(Cl)cc1Cl (centres unmarked) [Imazalil, imazalil] showed an IC50 ([1]; A-431, A431, 24 h exposure, mean ± S.D., read-out: IC50) of 145 ± 1.7 µM, an IC50 ([1]; A-431, A431, 48 h exposure, mean ± S.D., read-out: IC50) of 117 ± 6.5 µM and an IC50 ([2]; SK-MEL-5, 24 h exposure, mean ± S.D., read-out: IC50) of 156 ± 9 µM. The IC50 ([2]; SK-MEL-5, 48 h exposure, mean ± S.D., read-out: IC50) was 76.7 ± 1.8 µM, the “reduction in cell viability” value ([2]; SK-MEL-5, 50 µM, 48 h) was “about 20%” and the viability at 48 h, 50 µM [3] was ~80%. For the same molecule, the “log Pow” value [4] was 4.56, the IC50 ([5]; conversion of µg/mL value, read-out: IC50) was ~100 µM and the IC50 [5] was 30 µg/mL. For the same molecule, the CYP3A4 inhibition [6] was “inhibit CYP3A4”, the IC50 ([7]; 24 h exposure, mean ± S.D., read-out: IC50) was 174 ± 15.3 µM and the IC50 ([7]; 48 h exposure, mean ± S.D., read-out: IC50) was 120 ± 6.2 µM. The “concentration at which a significant reduction in cell viability was observed” value ([8]; HepG2) was 50 µM, the IC50 ([8]; HepG2, 24 h exposure, mean ± S.D., read-out: IC50) was 93.7 ± 2.2 µM and the IC50 ([8]; HepG2, 48 h exposure, mean ± S.D., read-out: IC50) was 47.1 ± 0.5 µM. The cell viability reduction ([9]; 24 h) was 94.13%, the cell viability reduction ([9]; 48 h) was 98.06% and the IC50 ([9]; Caco-2, 24 h exposure, mean ± S.D., read-out: IC50) was 254 ± 3.4 µM. The IC50 ([9]; Caco-2, 48 h exposure, mean ± S.D., read-out: IC50) was 186 ± 2.27 µM, the viability at 48 h, 200 µM ([10]; Caco-2, 200 µM) was 39.7% and the IC50 ([11]; RAW264.7, RAW 264.7, 24 h exposure, mean ± S.D., read-out: IC50) was 31.3 ± 2.7 µM. The IC50 ([11]; RAW264.7, RAW 264.7, 48 h exposure, mean ± S.D., read-out: IC50) was 7.21 ± 4.5 µM, the H-donor acceptor count [12] was 2 and the pKa [13] was 6.53.

With O=C(O)CNCP(=O)(O)O [Glyphosate, N-phosphonomethyl-glycine] the IC50 ([1]; A-431, 24 h) was > 1000 µM, the IC50 ([1]; A-431, 48 h) was > 1000 µM and the IC50 ([2]; SK-MEL-5, 24 h) was > 1000 µM. The IC50 ([2]; SK-MEL-5, 48 h) was > 1000 µM, the “reduction in cell viability” value ([2]; SK-MEL-5, 1 mM, 24 h) was 23.3% and the “reduction in cell viability” value ([2]; SK-MEL-5, 1 mM, 48 h) was 18.7%. The IC50 [14] was 11 µM, the “effect on cell viability” value [15] was “did not reduce cell viability” and the “effect on cell viability” value ([15]; listed as GLY) was “not able to induce cell death below 50%”. The “concentrations that disrupted Caco-2 monolayers (loss of membrane integrity)” value ([5]; conversion of mg/mL value) was > 59000 µM, the “concentrations that disrupted Caco-2 monolayers (loss of membrane integrity)” value [5] was “higher than 10 mg/mL” and the IC50 ([7]; 24 h) was > 1000 µM. For the same molecule, the IC50 ([7]; 48 h) was > 1000 µM, the effect on cells ([8]; HepG2, concentrations up to 1 mM) was “not affected” and the IC50 ([8]; HepG2, 24 h) was > 1000 µM. For the same molecule, the IC50 ([8]; HepG2, 48 h) was > 1000 µM, the “effect on cell viability” value ([9]; Caco-2, concentrations up to 1 mM, 24 h or 48 h) was “no significant reduction in cell viability” and the IC50 ([9]; Caco-2, 24 h) was > 1000 µM. For the same molecule, the IC50 ([9]; Caco-2, 48 h) was > 1000 µM, the “effect on cell proliferation” value ([16]; HepG2, up to 3.5 µg/mL (20.7 µM), 4 h and 24 h) was “slight increase in cell proliferation” and the IC50 ([11]; RAW264.7, 24 h) was > 1000 µM. The IC50 ([11]; RAW264.7, 48 h) was > 1000 µM, the “solubility in organic solvents” value [17] was “very low solubility in organic solvents” and the IC50 ([18]; 18 h exposure) was 30000 µM.

Work on O=[N+]([O-])NC1=NCCN1Cc1ccc(Cl)nc1 [Imidacloprid, imidacloprid] yielded an IC50 ([1]; A-431, 24 h) of 573 ± 10.4 µM, an IC50 ([1]; A-431, 48 h) of 389 ± 9.2 µM and an IC50 ([2]; SK-MEL-5, 24 h) of 507 ± 22.1 µM. The IC50 ([2]; SK-MEL-5, 48 h) was 319 ± 11.5 µM, the “reduction in cell viability” value ([2]; SK-MEL-5, 600 µM, 48 h) was ~ 88% and the “log Pow” value [4] was 0.57. For the same molecule, the cell viability ([5]; Caco-2, 96 h, 0.25 µg/mL) was 81%, the “concentrations cytotoxic / reducing cell viability” value ([5]; Caco-2, 96 h, conversion of µg/mL value) was > 0.98 µM and the “concentrations cytotoxic / reducing cell viability” value ([5]; Caco-2, 96 h, formulation from Bayer) was “above 0.25 µg/mL”. The IC50 ([7]; 24 h) was 495 ± 19.4 µM, the IC50 ([7]; 48 h) was 482 ± 12.9 µM and the IC50 ([8]; HepG2, 24 h) was 624 ± 24.3 µM. The IC50 ([8]; HepG2, 48 h) was 620 ± 10.6 µM, the IC50 ([9]; Caco-2, 24 h) was > 1000 µM and the IC50 ([9]; Caco-2, 48 h) was 832 ± 29.6 µM. The viability at 48 h, 600 µM ([10]; Caco-2, 600 µM, read-out: cell viability (% of control)) was 68.5%, the viability at 48 h, 1 mM ([10]; Caco-2, 1 mM, read-out: cell viability (% of control)) was 27.3% and the “concentration range dose-dependently reducing cell viability” value ([16]; HepG2, 24 h) was 500 to 2000 µM. For the same molecule, the “concentration range dose-dependently reducing cell viability” value ([16]; HepG2, 48 h) was 250 to 2000 µM, the IC50 ([11]; RAW264.7, 24 h) was 306 ± 22.4 µM and the IC50 ([11]; RAW264.7, 48 h) was 307 ± 22.1 µM. For the same molecule, the H-donor acceptor count [12] was 4 and the “concentration reducing cell viability below 50%” value ([18]; 24 h) was 2350 µM.
